Results as given in patent publication US10973807B2, “Pharmaceutical composition comprising pyrrolo-fused six-membered heterocyclic compound” (Jiangsu Hengrui Medicine Co., Ltd., priority 2016, dated 2021).

Columns and labels:
[1] = Stability in the presence of moisture; format: physicochemical; conditions: compound or a pharmaceutically acceptable salt thereof
[2] = Water solubility; format: physicochemical; conditions: compound or a pharmaceutically acceptable salt thereof

stability in the presence of moisture [1]: unstable
water solubility [2]: poor
Compound: CCN(CC)CCN1CCc2[nH]c(/C=C3\C(=O)Nc4ccc(F)cc43)c(C)c2C1=O.O=C(O)C[C@H](O)C(=O)O [compound of formula (I), 5-(2-diethylamino-ethyl)-2-(5-fluoro-2-oxo-1,2-dihydro-indol-3-ylidene-methyl)-3-methyl-1,5,6,7-tetrahydro-pyrrolo[3,2-c]pyridin-4-one]
